Reference: patent US8846937B2, “Mono quaternary ammonium salts and methods for modulating neuronal nicotinic acetylcholine receptors” (University of Kentucky Research Foundation, priority 2006, dated 2014)

Columns and labels:
[1] = tested on: nicotinic receptors, NIC-evoked [^3H]DA release from rat striatal slices; assay: Inhibition of nicotine-evoked [^3H]dopamine release from superfused rat striatal slices; assay type: cell-based; conditions: 1 h, 100 nM analog superfused 60 minutes prior to NIC (10 μM)
Experimental: Rat striatal slices (500 μm thickness, 6-8 mg wet weight) were incubated for 30 minutes in Krebs buffer (118 mM NaCl, 4.7 mM KCl, 1.2 mM MgCl2, 1.0 mM NaH2PO4, 1.3 mM CaCl2, 11.1 mM glucose, 25 mM NaHCO3, 0.11 mM L-ascorbic acid, and 0.004 mM disodium EDTA at pH 7.4, and saturated with 95% O2/5% CO2) in a metabolic shaker at 34° C. Slices were rinsed with 15 mL of fresh buffer, and were incubated for an additional 30 minutes in fresh buffer containing 0.1 μM [^3H]dopamine (DA; 6 slices/3 mL). Subsequently, slices were rinsed with 15 mL of fresh buffer and transferred to a glass superfusion chamber. Slices were superfused (1.0 mL/min) for 60 minutes with Krebs buffer containing nomifensine (10 μM) and pargyline (10 μM), and maintained at 34° C., pH 7.4, with continual aeration (95% O2/5% CO2). Two five minute samples (5 mL each) were collected to determine basal outflow of [^3H]DA. The test compounds of Formula (I) were added to the superfusion buffer after the collection of the second sample, and were maintained in the buffer until 12 consecutive five minute samples were collected. Subsequently, S-(−)-nicotine (10 μM) was added to the buffer, and an additional 12 consecutive five minute samples were collected. At the end of the experiment, each slice was solubilized, and the [^3H]content of the tissue determined.
Radioactivity in the superfusate and tissue samples was determined by liquid scintillation spectroscopy. Fractional release of tritium collected in each sample was divided by the total tritium present in the tissue at the time of sample collection, and the fractional release of tritium collected was expressed as a percentage of total tritium. Basal [^3H]outflow was calculated from the average of the tritium collected in the two five minute samples just before addition of a test compound of Formula (I). The sum of the increase in collected tritium resulting from either exposure to a test compound of Formula (I), or exposure to S(−) nicotine in the absence and presence of a test compound of Formula (I) equaled total [^3H]overflow. [^3H]Overflow was calculated by subtracting the [^3H]outflow during an equivalent period of pre-stimulation from the values in samples collected during and after drug exposure. Inasmuch as the radio-labeled compounds were not separated and identified, the tritium collected in superfusate is referred to as either [^3H]outflow or [^3H]overflow, rather than as [^3H]DA. [^3H]Overflow primarily represents [^3H]DA in the presence of nomifensine and pargyline in the superfusion buffer.
The quaternary analogs of Formula (I) were also evaluated for their ability to inhibit NIC-evoked [^3H]DA release. In these experiments, the striatal slices were superfused for 60 minutes with 100 nM concentration of the quaternary analogs prior to NIC (10 μM) exposure. Antagonist activity was evaluated by comparing the NIC-evoked [^3H]overflow in the absence and presence of the analogs. The relative order of potency of the quaternary analogs of Formula (I) for inhibition of NIC-evoked [^3H]DA release from rat striatal slices is illustrated in Table 1.
^aData are % inhibition at 100 nM concentration of the mono quaternary analogs for at least 1-3 independent experiments; with the exception of when a Ki value in μM is provided, in which case a full concentration effect was evaluated. Specific binding in the [^3H]NIC binding assay is calculated as the difference between the total binding of 3 nM [^3H]NIC and nonspecific binding in the presence of 10 μM cold nicotine. Specific binding for the [^3H]MLA binding assay is calculated as the difference between the total binding of 2.5 nM [^3H]MLA to the receptors alone and its nonspecific binding in the presence of 1 μM cold MLA. Analog-induced inhibition of nicotine-evoked [^3H]DA release is calculated as a percent of that in the absence of the mono quaternary ammonium analog. ND indicates not determined.

[2] = target: T1, Rat Striatal Nicotinic Receptors ([^3H]NIC binding) (Rattus norvegicus, UniProt P09483+P12390); assay: Inhibition of [^3H]nicotine binding to brain membranes; conditions: % inhibition at 100 nM analog; 3 nM [^3H]NIC; nonspecific 10 μM nicotine
T1 construct: Whole brain, excluding cortex and cerebellum, was homogenized; from tissue; host or cells: rat brain membranes (whole brain excluding cortex and cerebellum)
T1 sequence (P09483 31-630): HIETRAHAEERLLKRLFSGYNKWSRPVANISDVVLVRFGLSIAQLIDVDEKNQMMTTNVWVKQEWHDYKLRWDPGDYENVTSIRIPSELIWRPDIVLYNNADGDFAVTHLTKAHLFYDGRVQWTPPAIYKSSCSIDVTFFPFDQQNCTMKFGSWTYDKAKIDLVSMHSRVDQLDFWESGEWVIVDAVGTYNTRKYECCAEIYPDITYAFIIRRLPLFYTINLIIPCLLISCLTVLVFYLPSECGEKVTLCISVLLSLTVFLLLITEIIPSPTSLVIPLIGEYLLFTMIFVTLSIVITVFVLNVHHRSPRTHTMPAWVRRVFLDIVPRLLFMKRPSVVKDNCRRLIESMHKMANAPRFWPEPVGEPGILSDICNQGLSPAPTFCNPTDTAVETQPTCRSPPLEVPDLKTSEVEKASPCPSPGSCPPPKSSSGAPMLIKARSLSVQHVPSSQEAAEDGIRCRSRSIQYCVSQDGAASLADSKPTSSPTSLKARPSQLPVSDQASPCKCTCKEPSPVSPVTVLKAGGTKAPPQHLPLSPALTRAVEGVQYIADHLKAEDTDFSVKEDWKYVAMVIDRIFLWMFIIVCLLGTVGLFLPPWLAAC
T1 sequence (P12390 25-500): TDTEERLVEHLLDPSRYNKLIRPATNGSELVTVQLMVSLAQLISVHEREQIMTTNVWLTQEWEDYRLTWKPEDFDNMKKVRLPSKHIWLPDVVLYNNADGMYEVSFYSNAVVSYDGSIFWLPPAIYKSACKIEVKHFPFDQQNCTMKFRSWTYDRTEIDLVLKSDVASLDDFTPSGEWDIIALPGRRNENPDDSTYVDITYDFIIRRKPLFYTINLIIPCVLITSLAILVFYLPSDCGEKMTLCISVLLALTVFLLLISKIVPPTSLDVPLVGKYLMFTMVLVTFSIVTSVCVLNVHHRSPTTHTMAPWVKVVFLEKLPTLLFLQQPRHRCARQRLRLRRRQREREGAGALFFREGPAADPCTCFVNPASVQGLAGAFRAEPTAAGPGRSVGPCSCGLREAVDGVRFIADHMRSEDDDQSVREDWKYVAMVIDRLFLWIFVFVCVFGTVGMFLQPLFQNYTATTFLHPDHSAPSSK
Experimental: (§1) Test compounds of Formula (I), representing the mono quaternary nicotine analogs of the present invention, were evaluated to determine the effect of a test compound on nicotine-binding and methyllycaconitine-binding mediated by nicotine acetylcholine receptors.
(§2) Homogenate was centrifuged (25,000 g, 15 min, 4° C.). Pellets were resuspended in 20 volumes of buffer and incubated at 37° C., for 10 min, cooled to 4° C. and centrifuged (25,000 g, 15 min, 4° C.). Pellets were resuspended and centrifuged using the same conditions. […] Upon use, final pellets were resuspended in ˜20 volumes of assay buffer. Samples (250 μl) contained 100-140 μg of membrane protein, 3 nM [^3H]nicotine or 3 nM [^3H]methyllycaconitine (MLA), and test compounds of Formula (I) (100 nM) in assay buffer containing 50 mM Tris. A control sample absent test compounds of Formula (I) was also prepared. In the [^3H]nicotine-binding assay and [^3H]MLA-binding assay, nonspecific-binding was determined in the presence of 10 μM nicotine and 10 μM MLA, respectively. Incubations proceeded for 60 min at a room temperature using 96-well plates, and were terminated by harvesting on Unifilter-96 GF/B filter plates presoaked in 0.5% polyethylenimine, using a Packard FilterMate harvester. After washing 5 times with 350 μl ice-cold assay buffer, the filter plates were dried (60 min, 4° C.), bottom-sealed, and filled with Packard's MicroScint 20 cocktail (40 μl/well). After 60 min, filter plates were top-sealed, and levels of radioactivity were determined using a Packard TopCount. Protein concentrations were determined using the Bradford dye-binding procedure using bovine serum albumin as a standard protein.
Specific binding in the [^3H]NIC binding assay is calculated as the difference between the total binding of 3 nM [^3H]NIC and nonspecific binding in the presence of 10 μM cold nicotine. […] Analog-induced inhibition of nicotine-evoked [^3H]DA release is calculated as a percent of that in the absence of the mono quaternary ammonium analog. ND indicates not determined.

[3] = target: T2, Rat Striatal Nicotinic Receptors ([^3H]MLA binding) (Rattus norvegicus, UniProt Q05941); assay: Inhibition of [^3H]methyllycaconitine (MLA) binding to brain membranes; conditions: % inhibition at 100 nM analog; 2.5 nM [^3H]MLA; nonspecific 1 μM MLA (footnote)
T2 construct: Whole brain, excluding cortex and cerebellum, was homogenized; from tissue; host or cells: rat brain membranes (whole brain excluding cortex and cerebellum)
T2 sequence (Q05941 23-502): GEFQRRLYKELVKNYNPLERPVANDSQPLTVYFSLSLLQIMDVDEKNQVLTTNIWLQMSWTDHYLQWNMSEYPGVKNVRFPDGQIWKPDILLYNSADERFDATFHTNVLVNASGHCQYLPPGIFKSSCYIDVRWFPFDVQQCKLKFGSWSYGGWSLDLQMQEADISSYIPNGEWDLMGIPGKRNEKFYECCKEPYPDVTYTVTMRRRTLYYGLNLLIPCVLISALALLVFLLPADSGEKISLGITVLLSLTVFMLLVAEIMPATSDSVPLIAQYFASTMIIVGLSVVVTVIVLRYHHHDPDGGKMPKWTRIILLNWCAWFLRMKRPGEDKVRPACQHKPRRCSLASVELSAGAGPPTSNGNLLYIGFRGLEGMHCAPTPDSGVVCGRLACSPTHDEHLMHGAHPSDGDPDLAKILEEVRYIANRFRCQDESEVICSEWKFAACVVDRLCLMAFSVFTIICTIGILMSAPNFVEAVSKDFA
Experimental: as §1
as §2, with “Samples (250 μl) contained 100-140 μg of membrane protein, 3 nM [^3H]nicotine or 3 nM [^3H]methyllycaconitine (MLA), and test compounds of Formula (I) (100 nM) in assay buffer containing 50 mM Tris.” left out, “In the [^3H]nicotine-binding assay and [^3H]MLA-binding assay, nonspecific-binding was determined in the presence of 10 μM nicotine and 10 μM MLA, respectively.” left out, “protein. […]” for “protein.”

Structure (SMILES)	inhibition at 0.1 µM [1] [%]	inhibition at 0.1 µM [2] [%]	inhibition at 0.1 µM [3] [%]
Cc1ccc[n+](CCCCCCCCCCCCCc2cccnc2)c1	31	0	2
Cc1cc[n+](CCCCCCCCc2ccccc2)c(C)c1	14	0	9
C(#Cc1ccc(-c2ccccc2)cc1)CCC[n+]1cccc2ccccc21	23	1	7
CCCCc1ccc(CCCC[n+]2ccc(C)cc2C)cc1	19	6	0
C(#Cc1ccc(-c2ccccc2)cc1)CCC[n+]1ccccc1	34	2	6
